From PubChem BioAssay (NCI)
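GI50 = concentration required for 50% inhibition of growth. Definition used: TGI = concentration required for complete inhibition of growth.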

How the values were obtained:
Experiment in all cases: inhibition of tumour cell growth, NCI panel, 384-well format
MDA-MB-231 breast = tested on: MDA-MB-231 breast
SK-MEL-2 melanoma = tested on: SK-MEL-2 melanoma
DU-145 prostate = tested on: DU-145 prostate
NCI-H322M lung = tested on: NCI-H322M lung
NCI-H23 lung = tested on: NCI-H23 lung
HOP-62 NSCLC = tested on: HOP-62 NSCLC
IGROV1 ovarian = tested on: IGROV1 ovarian
A498 renal = tested on: A498 renal
COLO 205 colon = tested on: COLO 205 colon
HCT-15 colon = tested on: HCT-15 colon
NCI-H522 lung = tested on: NCI-H522 lung
SF-268 CNS = tested on: SF-268 CNS
HL-60(TB) leukemia = tested on: HL-60(TB) leukemia
786-0 renal = tested on: 786-0 renal
HCT-116 colon = tested on: HCT-116 colon
MALME-3M melanoma = tested on: MALME-3M melanoma
T-47D breast = tested on: T-47D breast
A549 NSCLC = tested on: A549 NSCLC
BT-549 breast = tested on: BT-549 breast
M14 melanoma = tested on: M14 melanoma
ACHN renal = tested on: ACHN renal
SK-MEL-28 melanoma = tested on: SK-MEL-28 melanoma
UACC-257 melanoma = tested on: UACC-257 melanoma
U251 glioblastoma = tested on: U251 glioblastoma
EKVX NSCLC = tested on: EKVX NSCLC
OVCAR-5 ovarian = tested on: OVCAR-5 ovarian
MDA-MB-468 breast = tested on: MDA-MB-468 breast
UO-31 renal = tested on: UO-31 renal
NCI-H460 NSCLC = tested on: NCI-H460 NSCLC
MOLT-4 leukemia = tested on: MOLT-4 leukemia
RXF 393 renal = tested on: RXF 393 renal
SW-620 colon = tested on: SW-620 colon
MCF7 breast = tested on: MCF7 breast
HOP-92 NSCLC = tested on: HOP-92 NSCLC
SK-OV-3 ovarian = tested on: SK-OV-3 ovarian
SK-MEL-5 melanoma = tested on: SK-MEL-5 melanoma
OVCAR-8 ovarian = tested on: OVCAR-8 ovarian
PC-3 prostate = tested on: PC-3 prostate
CAKI-1 renal = tested on: CAKI-1 renal
SNB-19 CNS = tested on: SNB-19 CNS
OVCAR-3 ovarian = tested on: OVCAR-3 ovarian
HS 578T breast = tested on: HS 578T breast
NCI-H226 lung = tested on: NCI-H226 lung
OVCAR-4 ovarian = tested on: OVCAR-4 ovarian
TK-10 renal = tested on: TK-10 renal
SF-539 CNS = tested on: SF-539 CNS
SR leukemia = tested on: SR leukemia
UACC-62 melanoma = tested on: UACC-62 melanoma
SNB-75 CNS = tested on: SNB-75 CNS
MDA-MB-435 melanoma = tested on: MDA-MB-435 melanoma
SN12C renal = tested on: SN12C renal
SF-295 CNS = tested on: SF-295 CNS
K-562 leukemia = tested on: K-562 leukemia
HT29 colon = tested on: HT29 colon
KM12 colon = tested on: KM12 colon

O=C(Nc1ccc2[nH]nc(-c3ccncc3)c2c1)[C@@H]1CCN(CC(=O)N2CCN(c3ccc(-c4ncccn4)cc3)CC2)C1
GI50 (MDA-MB-231 breast): 0.315 µM | TGI (MDA-MB-231 breast): 32.9 µM | GI50 (SK-MEL-2 melanoma): 0.0375 µM | TGI (SK-MEL-2 melanoma): 0.192 µM | GI50 (DU-145 prostate): 4.59 µM | TGI (DU-145 prostate): > 100 µM | GI50 (NCI-H322M lung): 0.623 µM | TGI (NCI-H322M lung): 31.6 µM | GI50 (NCI-H23 lung): 0.0571 µM | TGI (NCI-H23 lung): 0.678 µM | GI50 (HOP-62 NSCLC): 0.661 µM | TGI (HOP-62 NSCLC): 17.4 µM | GI50 (IGROV1 ovarian): 0.438 µM | TGI (IGROV1 ovarian): 35.7 µM | GI50 (A498 renal): 1.78 µM | TGI (A498 renal): 10 µM | GI50 (COLO 205 colon): 0.0281 µM | TGI (COLO 205 colon): 0.43 µM | GI50 (HCT-15 colon): 5.45 µM | TGI (HCT-15 colon): 29.1 µM | GI50 (NCI-H522 lung): 9.33 µM | TGI (NCI-H522 lung): 22.1 µM | GI50 (SF-268 CNS): 17.9 µM | TGI (SF-268 CNS): 73.4 µM | GI50 (HL-60(TB) leukemia): 0.0163 µM | TGI (HL-60(TB) leukemia): 1.26 µM | GI50 ([…]-0 renal): 9.92 µM | TGI (786-0 renal): 23.6 µM | GI50 (HCT-116 colon): 0.0687 µM | TGI (HCT-116 colon): 1.26 µM | TGI (MALME-3M melanoma): 0.0442 µM | GI50 (T-47D breast): 2.96 µM | TGI (T-47D breast): 9.04 µM | GI50 (A549 NSCLC): 0.628 µM | TGI (A549 NSCLC): > 100 µM | GI50 (BT-549 breast): 2.71 µM | TGI (BT-549 breast): 16.6 µM | GI50 (M14 melanoma): 0.0253 µM | TGI (M14 melanoma): 0.198 µM | GI50 (ACHN renal): 8.76 µM | TGI (ACHN renal): > 100 µM | GI50 (SK-MEL-28 melanoma): 0.0186 µM | TGI (SK-MEL-28 melanoma): 0.174 µM | GI50 (UACC-257 melanoma): 0.0268 µM | TGI (UACC-257 melanoma): 0.271 µM | GI50 (U251 glioblastoma): 1.79 µM | TGI (U251 glioblastoma): 22.2 µM | GI50 (EKVX NSCLC): 2.28 µM | TGI (EKVX NSCLC): 83 µM | GI50 (OVCAR-5 ovarian): 0.16 µM | TGI (OVCAR-5 ovarian): > 100 µM | GI50 (MDA-MB-468 breast): 3.55 µM | TGI (MDA-MB-468 breast): 33.8 µM | GI50 (UO-31 renal): 2.28 µM | TGI (UO-31 renal): 16.1 µM | GI50 (NCI-H460 NSCLC): 0.379 µM | TGI (NCI-H460 NSCLC): 17.6 µM | GI50 (MOLT-4 leukemia): 1.42 µM | TGI (MOLT-4 leukemia): 3 µM | GI50 (RXF 393 renal): 1.05 µM | TGI (RXF 393 renal): 3.55 µM | GI50 (SW-620 colon): 0.0863 µM | TGI (SW-620 colon): > 100 µM | GI50 (MCF7 breast): 11.6 µM | TGI (MCF7 breast): 26.9 µM | GI50 (HOP-92 NSCLC): 0.417 µM | TGI (HOP-92 NSCLC): 2.18 µM | GI50 (SK-OV-3 ovarian): 20.3 µM | TGI (SK-OV-3 ovarian): 90.7 µM | GI50 (SK-MEL-5 melanoma): 0.0781 µM | TGI (SK-MEL-5 melanoma): 4.43 µM | GI50 (OVCAR-8 ovarian): 2.83 µM | TGI (OVCAR-8 ovarian): 15 µM | GI50 (PC-3 prostate): 5.37 µM | TGI (PC-3 prostate): 20.5 µM | GI50 (CAKI-1 renal): 0.507 µM | TGI (CAKI-1 renal): 20.6 µM | GI50 (SNB-19 CNS): > 100 µM | TGI (SNB-19 CNS): > 100 µM | GI50 (OVCAR-3 ovarian): 19.8 µM | TGI (OVCAR-3 ovarian): > 100 µM | GI50 (HS 578T breast): 10.8 µM | TGI (HS 578T breast): 36 µM | GI50 (NCI-H226 lung): 0.735 µM | TGI (NCI-H226 lung): 14.6 µM | GI50 (OVCAR-4 ovarian): 48.4 µM | TGI (OVCAR-4 ovarian): > 100 µM | GI50 (TK-10 renal): 0.853 µM | TGI (TK-10 renal): > 100 µM | GI50 (SF-539 CNS): 0.69 µM | TGI (SF-539 CNS): 9.72 µM | GI50 (SR leukemia): 2.68 µM | TGI (SR leukemia): 12 µM | GI50 (UACC-62 melanoma): 0.0166 µM | TGI (UACC-62 melanoma): 0.385 µM | GI50 (SNB-75 CNS): 11.6 µM | TGI (SNB-75 CNS): 25.4 µM | GI50 (MDA-MB-435 melanoma): 0.0652 µM | TGI (MDA-MB-435 melanoma): > 100 µM | GI50 (SN12C renal): 2.28 µM | TGI (SN12C renal): > 100 µM | GI50 (SF-295 CNS): 13.1 µM | TGI (SF-295 CNS): 37.8 µM | GI50 (K-562 leukemia): 0.273 µM | TGI (K-562 leukemia): 12.8 µM | GI50 (HT29 colon): 0.069 µM | TGI (HT29 colon): 14.2 µM | GI50 (KM12 colon): 5.61 µM | TGI (KM12 colon): > 100 µM
